Experimental data from patent EP4745137A1 (Gluetacs Therapeutics (Shanghai) Co., Ltd., priority 2023, dated 2025).
One block for each molecule: values may come before it.

Legend:
CK1α = target: T1, CK1α (Homo sapiens, UniProt P48729+Q96SW2); assay: Western-blot assay of substrate protein degradation in hPBMCs, CK1α; type: cell-based; conditions: 24 hours of compound treatment, compounds tested at 50 nM and 500 nM (concentration of the table not stated)
T1 construct: endogenous in cells; host or cells: hPBMCs (Milecell Biotechnologies)

Vcap = assay: Tumor cell proliferation inhibition (CellTiter-Meiluncell Luminescent Cell Viability Assay), Vcap; conditions: Homo sapiens, 96 h, read-out: inhibitory activity (IC50, nM) against tumor cells proliferation, Vcap
SW620 = assay: Tumor cell proliferation inhibition (CellTiter-Meiluncell Luminescent Cell Viability Assay), SW620; conditions: Homo sapiens, SW-620, 96 h, read-out: inhibitory activity (IC50, nM) against tumor cells proliferation, SW620
CAL-62 = assay: Tumor cell proliferation inhibition (CellTiter-Meiluncell Luminescent Cell Viability Assay), CAL-62; conditions: Homo sapiens, CAL-62, 96 h, read-out: inhibitory activity (IC50, nM) against tumor cells proliferation, CAL-62
IKZF1 = target: T2, IKZF1 (Homo sapiens, UniProt Q13422+Q96SW2); assay: Western-blot assay of substrate protein degradation in hPBMCs, IKZF1; type: cell-based; conditions: 24 hours of compound treatment, compounds tested at 50 nM and 500 nM (concentration of the table not stated)
T2 construct: endogenous in cells; host or cells: hPBMCs (Milecell Biotechnologies)
T2 sequence (Q13422 whole entry): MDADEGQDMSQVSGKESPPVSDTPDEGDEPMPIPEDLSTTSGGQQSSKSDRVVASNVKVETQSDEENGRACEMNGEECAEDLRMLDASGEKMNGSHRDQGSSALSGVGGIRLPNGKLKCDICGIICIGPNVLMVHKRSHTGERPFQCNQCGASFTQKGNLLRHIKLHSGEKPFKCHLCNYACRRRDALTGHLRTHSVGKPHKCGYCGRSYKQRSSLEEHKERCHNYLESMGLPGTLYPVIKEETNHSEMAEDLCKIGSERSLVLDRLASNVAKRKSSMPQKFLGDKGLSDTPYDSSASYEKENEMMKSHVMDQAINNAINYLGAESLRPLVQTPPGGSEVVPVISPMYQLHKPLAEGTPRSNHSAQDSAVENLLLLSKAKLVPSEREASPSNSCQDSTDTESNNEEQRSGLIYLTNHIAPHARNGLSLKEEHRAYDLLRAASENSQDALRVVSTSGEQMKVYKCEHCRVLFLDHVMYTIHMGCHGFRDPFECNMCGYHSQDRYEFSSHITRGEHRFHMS
T2 sequence (Q96SW2 whole entry): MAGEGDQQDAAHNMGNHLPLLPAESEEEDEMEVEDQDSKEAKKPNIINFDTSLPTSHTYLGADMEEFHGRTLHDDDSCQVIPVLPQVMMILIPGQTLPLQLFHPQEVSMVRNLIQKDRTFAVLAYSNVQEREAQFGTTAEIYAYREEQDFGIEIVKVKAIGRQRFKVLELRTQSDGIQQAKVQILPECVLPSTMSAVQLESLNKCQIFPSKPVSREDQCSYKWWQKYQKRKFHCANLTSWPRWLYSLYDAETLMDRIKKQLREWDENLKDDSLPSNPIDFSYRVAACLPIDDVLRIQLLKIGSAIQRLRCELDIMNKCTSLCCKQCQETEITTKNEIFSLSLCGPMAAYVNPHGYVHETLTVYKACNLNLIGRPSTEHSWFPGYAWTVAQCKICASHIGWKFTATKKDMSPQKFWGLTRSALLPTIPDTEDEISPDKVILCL
T2 sequence (Q16531 whole entry partner): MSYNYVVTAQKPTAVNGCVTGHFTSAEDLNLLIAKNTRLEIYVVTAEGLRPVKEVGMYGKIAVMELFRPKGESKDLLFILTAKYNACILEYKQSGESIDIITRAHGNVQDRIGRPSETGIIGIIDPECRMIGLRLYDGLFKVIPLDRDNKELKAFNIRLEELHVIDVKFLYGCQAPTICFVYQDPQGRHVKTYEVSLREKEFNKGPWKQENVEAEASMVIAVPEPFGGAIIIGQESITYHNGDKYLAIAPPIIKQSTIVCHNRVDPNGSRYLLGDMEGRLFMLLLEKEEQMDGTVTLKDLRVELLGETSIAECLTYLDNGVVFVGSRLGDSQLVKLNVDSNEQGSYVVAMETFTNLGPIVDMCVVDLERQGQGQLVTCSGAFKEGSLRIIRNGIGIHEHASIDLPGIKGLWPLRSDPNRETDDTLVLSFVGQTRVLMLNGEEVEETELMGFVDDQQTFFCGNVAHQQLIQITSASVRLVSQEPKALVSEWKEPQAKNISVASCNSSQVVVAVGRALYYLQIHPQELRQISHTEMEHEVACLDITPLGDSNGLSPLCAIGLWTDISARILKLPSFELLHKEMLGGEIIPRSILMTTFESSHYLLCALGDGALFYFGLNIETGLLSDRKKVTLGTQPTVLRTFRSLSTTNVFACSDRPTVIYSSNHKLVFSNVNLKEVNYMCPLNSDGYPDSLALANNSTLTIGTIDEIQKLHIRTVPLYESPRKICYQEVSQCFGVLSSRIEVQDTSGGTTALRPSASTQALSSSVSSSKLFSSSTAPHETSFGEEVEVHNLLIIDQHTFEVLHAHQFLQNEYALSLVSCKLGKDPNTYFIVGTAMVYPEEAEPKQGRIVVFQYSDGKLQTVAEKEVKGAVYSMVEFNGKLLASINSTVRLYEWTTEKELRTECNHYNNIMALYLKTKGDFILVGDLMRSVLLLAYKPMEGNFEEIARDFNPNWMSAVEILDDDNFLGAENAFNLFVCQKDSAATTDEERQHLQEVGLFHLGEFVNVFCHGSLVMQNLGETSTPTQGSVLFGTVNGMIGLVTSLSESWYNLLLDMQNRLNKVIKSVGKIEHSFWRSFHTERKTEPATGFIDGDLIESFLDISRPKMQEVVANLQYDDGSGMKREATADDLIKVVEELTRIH

[1] = target: T3, human Cereblon WT GST-tagged protein (Homo sapiens, UniProt Q96SW2); assay: CRBN-binding affinity by HTRF (CEREBLON BINDING kit); conditions: HTRF inhibitory activity, CEREBLON BINDING kit; read-out: HTRF IC50
T3 construct: purchased CISBIO 64BDCRBNPEH
T3 sequence (Q96SW2 whole entry): as the sequence (Q96SW2 whole entry) above

CCRF-CEM = assay: Tumor cell proliferation inhibition (CellTiter-Meiluncell Luminescent Cell Viability Assay), CCRF-CEM; conditions: Homo sapiens, 96 h, read-out: inhibitory activity (IC50, nM) against tumor cells proliferation, CCRF-CEM
IKZF3 = target: T4, IKZF3 (Homo sapiens, UniProt Q96SW2+Q9UKT9); assay: Western-blot assay of substrate protein degradation in hPBMCs, IKZF3; type: cell-based; conditions: 24 hours of compound treatment, compounds tested at 50 nM and 500 nM (concentration of the table not stated)
T4 construct: endogenous in cells; host or cells: hPBMCs (Milecell Biotechnologies)
T4 sequence (Q9UKT9 whole entry): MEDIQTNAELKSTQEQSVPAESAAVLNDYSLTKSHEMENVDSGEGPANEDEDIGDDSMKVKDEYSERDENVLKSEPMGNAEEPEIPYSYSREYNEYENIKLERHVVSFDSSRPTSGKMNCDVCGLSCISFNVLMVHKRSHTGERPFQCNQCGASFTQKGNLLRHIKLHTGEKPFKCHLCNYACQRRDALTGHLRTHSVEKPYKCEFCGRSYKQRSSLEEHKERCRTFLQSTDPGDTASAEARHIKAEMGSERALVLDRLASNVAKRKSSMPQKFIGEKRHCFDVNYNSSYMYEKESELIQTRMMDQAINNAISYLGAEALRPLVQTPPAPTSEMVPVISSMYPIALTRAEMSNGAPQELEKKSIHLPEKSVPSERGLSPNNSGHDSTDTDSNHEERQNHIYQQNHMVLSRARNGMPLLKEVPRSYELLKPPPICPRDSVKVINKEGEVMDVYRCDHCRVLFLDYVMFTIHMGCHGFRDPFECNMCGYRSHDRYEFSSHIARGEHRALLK
T4 sequence (Q96SW2 whole entry): as the sequence (Q96SW2 whole entry) above
T4 sequence (Q16531 whole entry partner): as the sequence (Q16531 whole entry partner) above

GSPT1 = target: T5, GSPT1 (Homo sapiens, UniProt P15170+Q96SW2); assay: Western-blot assay of substrate protein degradation in hPBMCs, GSPT1; type: cell-based; conditions: 24 hours of compound treatment, compounds tested at 50 nM and 500 nM (concentration of the table not stated)
T5 construct: endogenous in cells; host or cells: hPBMCs (Milecell Biotechnologies)
T5 sequence (P15170 whole entry): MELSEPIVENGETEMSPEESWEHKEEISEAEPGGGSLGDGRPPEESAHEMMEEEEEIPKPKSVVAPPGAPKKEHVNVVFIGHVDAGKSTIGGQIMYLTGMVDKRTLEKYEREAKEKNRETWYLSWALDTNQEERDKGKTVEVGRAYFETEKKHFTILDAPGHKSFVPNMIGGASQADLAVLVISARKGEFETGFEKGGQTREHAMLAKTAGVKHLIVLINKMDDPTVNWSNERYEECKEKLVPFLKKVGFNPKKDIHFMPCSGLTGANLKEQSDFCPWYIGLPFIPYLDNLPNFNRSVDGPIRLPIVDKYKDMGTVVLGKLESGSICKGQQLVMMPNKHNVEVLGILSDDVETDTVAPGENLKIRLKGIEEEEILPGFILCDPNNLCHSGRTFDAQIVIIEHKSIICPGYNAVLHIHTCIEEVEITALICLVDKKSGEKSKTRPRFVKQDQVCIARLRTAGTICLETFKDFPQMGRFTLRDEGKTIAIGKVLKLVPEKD
T5 sequence (Q96SW2 whole entry): as the sequence (Q96SW2 whole entry) above
T5 sequence (Q16531 whole entry partner): as the sequence (Q16531 whole entry partner) above

IKZF2 = target: T6, IKZF2 (Homo sapiens, UniProt Q96SW2+Q9UKS7); assay: Western-blot assay of substrate protein degradation in hPBMCs, IKZF2; type: cell-based; conditions: 24 hours of compound treatment, compounds tested at 50 nM and 500 nM (concentration of the table not stated)
T6 construct: endogenous in cells; host or cells: hPBMCs (Milecell Biotechnologies)
T6 sequence (Q9UKS7 whole entry): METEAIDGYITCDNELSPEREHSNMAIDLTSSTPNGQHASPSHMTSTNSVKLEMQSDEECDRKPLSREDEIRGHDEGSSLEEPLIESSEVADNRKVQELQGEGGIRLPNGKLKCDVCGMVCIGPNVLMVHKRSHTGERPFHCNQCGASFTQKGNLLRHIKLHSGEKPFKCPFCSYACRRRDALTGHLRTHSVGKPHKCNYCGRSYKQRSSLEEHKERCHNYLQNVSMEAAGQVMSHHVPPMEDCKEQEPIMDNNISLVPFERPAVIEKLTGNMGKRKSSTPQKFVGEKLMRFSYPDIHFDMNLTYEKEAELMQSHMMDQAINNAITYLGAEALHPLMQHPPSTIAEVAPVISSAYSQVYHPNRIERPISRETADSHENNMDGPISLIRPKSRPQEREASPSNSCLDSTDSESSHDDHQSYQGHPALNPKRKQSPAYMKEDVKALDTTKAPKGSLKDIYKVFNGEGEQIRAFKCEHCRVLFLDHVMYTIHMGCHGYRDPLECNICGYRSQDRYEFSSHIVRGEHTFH
T6 sequence (Q96SW2 whole entry): as the sequence (Q96SW2 whole entry) above
T6 sequence (Q16531 whole entry partner): as the sequence (Q16531 whole entry partner) above

Jurkat = assay: Tumor cell proliferation inhibition (CellTiter-Meiluncell Luminescent Cell Viability Assay), Jurkat; conditions: Homo sapiens, 96 h, read-out: inhibitory activity (IC50, nM) against tumor cells proliferation, Jurkat
WEE1 = target: T7, WEE1 (Homo sapiens, UniProt P30291+Q96SW2); assay: Western-blot assay of substrate protein degradation in hPBMCs, WEE1; type: cell-based; conditions: 24 hours of compound treatment, compounds tested at 50 nM and 500 nM (concentration of the table not stated)
T7 construct: endogenous in cells; host or cells: hPBMCs (Milecell Biotechnologies)
T7 sequence (P30291 whole entry): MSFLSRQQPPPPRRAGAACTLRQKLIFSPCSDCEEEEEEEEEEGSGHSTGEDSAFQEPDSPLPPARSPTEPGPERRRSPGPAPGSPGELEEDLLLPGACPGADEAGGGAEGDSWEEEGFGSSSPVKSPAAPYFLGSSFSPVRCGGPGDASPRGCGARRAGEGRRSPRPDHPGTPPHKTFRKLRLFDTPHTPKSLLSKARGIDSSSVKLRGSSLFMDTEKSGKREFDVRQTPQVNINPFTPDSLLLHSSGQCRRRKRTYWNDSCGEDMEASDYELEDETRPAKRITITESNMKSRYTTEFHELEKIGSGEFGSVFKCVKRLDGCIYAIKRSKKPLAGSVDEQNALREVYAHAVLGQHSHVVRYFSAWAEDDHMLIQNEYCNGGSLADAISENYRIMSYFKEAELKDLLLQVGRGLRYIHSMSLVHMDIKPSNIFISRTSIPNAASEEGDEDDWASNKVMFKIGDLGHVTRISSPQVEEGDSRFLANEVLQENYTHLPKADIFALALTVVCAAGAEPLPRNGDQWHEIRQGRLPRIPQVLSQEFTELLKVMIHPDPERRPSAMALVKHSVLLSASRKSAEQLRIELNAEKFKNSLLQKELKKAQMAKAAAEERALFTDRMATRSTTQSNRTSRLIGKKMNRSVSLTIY
T7 sequence (Q96SW2 whole entry): as the sequence (Q96SW2 whole entry) above
T7 sequence (Q16531 whole entry partner): as the sequence (Q16531 whole entry partner) above

NCI-H1975 = assay: Tumor cell proliferation inhibition (CellTiter-Meiluncell Luminescent Cell Viability Assay), NCI-H1975; conditions: Homo sapiens, NCI-H1975, 96 h, read-out: inhibitory activity (IC50, nM) against tumor cells proliferation, H1975
MM.1R = assay: Tumor cell proliferation inhibition (CellTiter-Meiluncell Luminescent Cell Viability Assay), MM.1R; conditions: Homo sapiens, 96 h, read-out: inhibitory activity (IC50, nM) against tumor cells proliferation, MM.1R
[2] = test system: Human acute T lymphocytic leukemia cells (Molt-4); assay: Tumor cell proliferation inhibition (CellTiter-Meiluncell Luminescent Cell Viability Assay), Molt-4; conditions: MOLT-4, 96 h, read-out: inhibitory activity (IC50, nM) against tumor cells proliferation, Molt 4
TMD8 = assay: Tumor cell proliferation inhibition (CellTiter-Meiluncell Luminescent Cell Viability Assay), TMD8; conditions: Homo sapiens, TMD8, 96 h, read-out: inhibitory activity (IC50, nM) against tumor cells proliferation, TMD8
Method: The tumor cells used herein were cultured in a cell culture medium listed in table 2 at 37°C in an incubator with 5% CO2. Prior to experimentation, all cell lines used were correctly identified by STR profiling, and tested negative for mycoplasma contamination using a mycoplasma detection kit through routine screenings.
On the following day, the test compounds of the present disclosure were subjected to serial dilution. […] Subsequently, 0.5 µL of the test compound dilution was transferred into the 96-well plate containing the cells, with each well containing 100 µL of cell culture medium. […] Into the 96-well plate, the diluted test compounds and corresponding detection reagents were added, resulting in final test compound concentrations of 500 nM and 10 nM, respectively. The experimental procedure is described below using the diluted 2 µM test compound as an example.
After the cells were treated with the compounds of the present disclosure for a specified period (the treatment durations were shown in Table 3), the cell viability assay reagent was added to the culture medium according to the kit's instructions to determine cell viability. […] All controls were treated using the same procedure as the compounds of the present disclosure. The growth inhibition curves for the compounds of the present disclosure were plotted using Prism GraphPad software, and the IC50 values were calculated therefrom.

[3] = test system: Human breast cancer cells (MDA-MB-231); assay: Tumor cell proliferation inhibition (CellTiter-Meiluncell Luminescent Cell Viability Assay), MDA-MB-231; conditions: MDA-MB-231, 96 h, read-out: inhibitory activity (IC50, nM) against tumor cells proliferation, MDA-MB-231

SMILES: O=C1CCC(N2Cc3cc(CN4CCN(c5cccc(F)n5)CC4)ccc3C2=O)C(=O)N1 (stereo not shown) [GT-04498, 3-(5-((4-(6-fluoropyridin-2-yl)piperazin-1-yl)methyl)-1-oxoisoindolin-2-yl)piperidine-2,6-dione]
- CK1a substrate protein remaining % (CK1α): A (0% ≤ substrate protein remaining % ≤ 80%)
- IC50 (Vcap): 100 to 500 nM
- IC50 (SW620): 500 to 1000 nM
- IC50 (CAL-62): 50 to 100 nM
- IKZF 1 substrate protein remaining % (IKZF1): A (0% ≤ substrate protein remaining % ≤ 80%)
- IC50 [1]: 500 to 1000 nM
- IC50 (CCRF-CEM): 10 to 50 nM
- IKZF3 substrate protein remaining % (IKZF3): A (0% ≤ substrate protein remaining % ≤ 80%)
- GSPT1 substrate protein remaining % (GSPT1): A (0% ≤ substrate protein remaining % ≤ 80%)
- IC50 (MM.1R): 50 to 100 nM
- IC50 [2]: 10 to 50 nM
- IKZF2 substrate protein remaining % (IKZF2): A (0% ≤ substrate protein remaining % ≤ 80%)
- IC50 (Jurkat): 10 to 50 nM
- Weel substrate protein remaining % (WEE1): A (0% ≤ substrate protein remaining % ≤ 80%)

SMILES: Cc1ccsc1C1CCN(Cc2ccc3c(c2)CN(C2CCC(=O)NC2=O)C3=O)CC1 (stereo not shown) [GT-04502, 3-(5-((4-(3-methylthiophen-2-yl)piperidin-1-yl)methyl)-1-oxoisoindolin-2-yl)piperidine-2,6-dione]
- CK1a substrate protein remaining % (CK1α): A (0% ≤ substrate protein remaining % ≤ 80%)
- IC50 (Vcap): 50 to 100 nM
- IC50 (SW620): 100 to 500 nM
- IC50 (CAL-62): 10 to 50 nM
- IKZF 1 substrate protein remaining % (IKZF1): A (0% ≤ substrate protein remaining % ≤ 80%)
- IC50 [1]: 500 to 1000 nM
- IC50 (CCRF-CEM): 10 to 50 nM
- IKZF3 substrate protein remaining % (IKZF3): A (0% ≤ substrate protein remaining % ≤ 80%)
- GSPT1 substrate protein remaining % (GSPT1): A (0% ≤ substrate protein remaining % ≤ 80%)
- IC50 (MM.1R): 10 to 50 nM
- IC50 [2]: 10 to 50 nM
- IKZF2 substrate protein remaining % (IKZF2): A (0% ≤ substrate protein remaining % ≤ 80%)
- IC50 (Jurkat): 10 to 50 nM
- Weel substrate protein remaining % (WEE1): A (0% ≤ substrate protein remaining % ≤ 80%)

SMILES: Cc1cscc1C1CCN(Cc2ccc3c(c2)CN(C2CCC(=O)NC2=O)C3=O)CC1 (stereo not shown) [GT-04504, 3-(5-((4-(4-methylthiophen-3-yl)piperidin-1-yl)methyl)-1-oxoisoindolin-2-yl)piperidine-2,6-dione]
- CK1a substrate protein remaining % (CK1α): B (80%< substrate protein remaining %≤ 100%)
- IC50 (Vcap): 50 to 100 nM
- IC50 (SW620): 100 to 500 nM
- IC50 (CAL-62): 10 to 50 nM
- IKZF 1 substrate protein remaining % (IKZF1): A (0% ≤ substrate protein remaining % ≤ 80%)
- IC50 [1]: 500 to 1000 nM
- IC50 (CCRF-CEM): 10 to 50 nM
- IKZF3 substrate protein remaining % (IKZF3): A (0% ≤ substrate protein remaining % ≤ 80%)
- GSPT1 substrate protein remaining % (GSPT1): A (0% ≤ substrate protein remaining % ≤ 80%)
- IC50 (MM.1R): 10 to 50 nM
- IC50 [2]: 10 to 50 nM
- IKZF2 substrate protein remaining % (IKZF2): A (0% ≤ substrate protein remaining % ≤ 80%)
- IC50 (Jurkat): 10 to 50 nM
- Weel substrate protein remaining % (WEE1): A (0% ≤ substrate protein remaining % ≤ 80%)

SMILES: Cc1ccsc1C1=CCN(Cc2cc(F)c3c(c2)CN(C2CCC(=O)NC2=O)C3=O)CC1 (stereo not shown) [GT-04730, 3-(7-fluoro-5-((4-(3-methylthiophen-2-yl)-3,6-dihydropyridin-1(2H)-yl)methyl)-1-oxoisoindolin-2-yl)piperidine-2,6-dione]
- CK1a substrate protein remaining % (CK1α): A (0% ≤ substrate protein remaining % ≤ 80%)
- IKZF 1 substrate protein remaining % (IKZF1): A (0% ≤ substrate protein remaining % ≤ 80%)
- IC50 [1]: 500 to 1000 nM
- IC50 (TMD8): 10 to 50 nM
- IC50 (NCI-H1975): 10 to 50 nM
- IKZF3 substrate protein remaining % (IKZF3): A (0% ≤ substrate protein remaining % ≤ 80%)
- GSPT1 substrate protein remaining % (GSPT1): A (0% ≤ substrate protein remaining % ≤ 80%)
- IC50 [2]: 1 to 5 nM
- IC50 [3]: 10 to 50 nM
- IKZF2 substrate protein remaining % (IKZF2): A (0% ≤ substrate protein remaining % ≤ 80%)
- Weel substrate protein remaining % (WEE1): A (0% ≤ substrate protein remaining % ≤ 80%)

SMILES: O=C1CCC(N2Cc3c(ccc(CN4CCC(c5noc6cc(F)ccc56)CC4)c3F)C2=O)C(=O)N1 (stereo not shown) [GT-04765, 3-(4-fluoro-5-((4-(6-fluorobenzo[d]isoxazol-3-yl)piperidin-1-yl)methyl)-1-oxoisoindolin-2-yl)piperidine-2,6-dione]
- CK1a substrate protein remaining % (CK1α): A (0% ≤ substrate protein remaining % ≤ 80%)
- IKZF 1 substrate protein remaining % (IKZF1): A (0% ≤ substrate protein remaining % ≤ 80%)
- IC50 [1]: 1000 to 1500 nM
- IC50 (TMD8): 100 to 500 nM
- IC50 (NCI-H1975): 50 to 100 nM
- IKZF3 substrate protein remaining % (IKZF3): A (0% ≤ substrate protein remaining % ≤ 80%)
- GSPT1 substrate protein remaining % (GSPT1): A (0% ≤ substrate protein remaining % ≤ 80%)
- IC50 [2]: 5 to 10 nM
- IC50 [3]: 10 to 50 nM
- IKZF2 substrate protein remaining % (IKZF2): A (0% ≤ substrate protein remaining % ≤ 80%)
- Weel substrate protein remaining % (WEE1): A (0% ≤ substrate protein remaining % ≤ 80%)

Further lines, with some results ahead:

- IC50 (Vcap): 500 to 1000 nM
- IC50 (SW620): 100 to 500 nM
- IC50 (CAL-62): 50 to 100 nM
- IC50 [1]: 500 to 1000 nM
- IC50 (CCRF-CEM): 10 to 50 nM
- IC50 (Jurkat): 100 to 500 nM
SMILES: O=C1CCC(N2Cc3cc(CN4CCN(c5nsc6ccccc56)CC4)ccc3C2=O)C(=O)N1 (stereo not shown) [GT-04255, 3-(5-((4-(benzo[d]isothiazol-3-yl)piperazin-1-yl)methyl)-1-oxoisoindolin-2-yl)piperidine-2,6-dione]
- CK1a substrate protein remaining % (CK1α): A (0% ≤ substrate protein remaining % ≤ 80%)
- IKZF 1 substrate protein remaining % (IKZF1): A (0% ≤ substrate protein remaining % ≤ 80%)
- IKZF3 substrate protein remaining % (IKZF3): A (0% ≤ substrate protein remaining % ≤ 80%)
- GSPT1 substrate protein remaining % (GSPT1): A (0% ≤ substrate protein remaining % ≤ 80%)
- IKZF2 substrate protein remaining % (IKZF2): A (0% ≤ substrate protein remaining % ≤ 80%)
- Weel substrate protein remaining % (WEE1): A (0% ≤ substrate protein remaining % ≤ 80%)

- IC50 (Vcap): 50 to 100 nM
- IC50 (SW620): 100 to 500 nM
- IC50 (CAL-62): 10 to 50 nM
- IC50 [1]: 500 to 1000 nM
- IC50 (CCRF-CEM): 10 to 50 nM
- IC50 (NCI-H1975): 500 to 1000 nM
- IC50 (MM.1R): 10 to 50 nM
- IC50 [2]: 10 to 50 nM
- IC50 (Jurkat): 10 to 50 nM
SMILES: O=C1CCC(N2Cc3cc(CN4CCN(c5ccc(F)cc5F)CC4)ccc3C2=O)C(=O)N1 (stereo not shown) [GT-04438, 3-(5-((4-(2,4-difluorophenyl)piperazin-1-yl)methyl)-1-oxoisoindolin-2-yl)piperidine-2,6-dione]
- CK1a substrate protein remaining % (CK1α): A (0% ≤ substrate protein remaining % ≤ 80%)
- IKZF 1 substrate protein remaining % (IKZF1): A (0% ≤ substrate protein remaining % ≤ 80%)
- IKZF3 substrate protein remaining % (IKZF3): A (0% ≤ substrate protein remaining % ≤ 80%)
- GSPT1 substrate protein remaining % (GSPT1): A (0% ≤ substrate protein remaining % ≤ 80%)
- IKZF2 substrate protein remaining % (IKZF2): A (0% ≤ substrate protein remaining % ≤ 80%)
- Weel substrate protein remaining % (WEE1): A (0% ≤ substrate protein remaining % ≤ 80%)
